Data published in patent US20260226048A1, “MULTI-CYCLIC IRAK AND FLT3 INHIBITING COMPOUNDS AND USES THEREOF” (CHILDREN'S HOSPITAL MEDICAL CENTER, priority 2023, published 2026).

How the values were obtained:
MOLM14 F691L cells = assay: MOLM14 F691L cell viability assay (Cell Titer Glo); format: cell-based; settings: Homo sapiens, MOLM-14; cell viability, Cell Titer Glo, 48 hours; read-out: MOLM14 F691L IC50
Summary of the method: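 Luminescent ATP read-out (CellTiter-Glo, 15 min room temperature) taken 48 h after compound addition. Cells were MOLM14 carrying FLT3 D835Y or F691L mutations, plated at 1000 cells per well.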

IRAK4 = target: T1, IRAK4 (Homo sapiens, UniProt Q9NWZ3); assay: RBC HotSpot Kinase Assay, IRAK4; format: biochemical; parameters: purchased Reaction Biology (RBC HotSpot); settings: isolated kinase enzyme, 33P-ATP, P81 filter-binding
T1 sequence (Q9NWZ3 1-460): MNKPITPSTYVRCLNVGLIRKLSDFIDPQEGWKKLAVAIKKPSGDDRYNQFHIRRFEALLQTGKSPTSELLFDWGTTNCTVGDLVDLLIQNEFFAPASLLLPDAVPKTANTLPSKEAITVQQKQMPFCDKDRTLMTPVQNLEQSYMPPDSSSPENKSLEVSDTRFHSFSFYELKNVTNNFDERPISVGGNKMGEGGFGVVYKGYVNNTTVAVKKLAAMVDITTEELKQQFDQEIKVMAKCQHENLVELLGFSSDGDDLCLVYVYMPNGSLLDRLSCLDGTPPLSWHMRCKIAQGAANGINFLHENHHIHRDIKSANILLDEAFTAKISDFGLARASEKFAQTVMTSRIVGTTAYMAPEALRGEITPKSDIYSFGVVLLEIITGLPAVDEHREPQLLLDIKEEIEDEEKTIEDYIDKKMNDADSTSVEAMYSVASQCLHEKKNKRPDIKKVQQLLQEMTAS
Summary of the method: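 Radiometric filter-binding activity assay with isolated recombinant kinase (construct may be truncated or catalytic domain only) in 20 mM Hepes pH 7.5, 10 mM MgCl2, 1 mM EGTA, 2 mM DTT, 1% DMSO. Compound preincubated 20 min with kinase/substrate; reaction started with 33P-ATP, run 2 h at room temperature.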

[1] = system: MOLM14-D835Y cells (FLT3-ITD (D835Y) mutant); assay: Combination drug screening with venetoclax in MOLM14 (D835Y) cells (Cell Titre Glo, 10 × 10); format: cell-based; parameters: Excess HSA (sum excess HSA score, combination with venetoclax): scale not given here; settings: for Excess HSA (sum excess HSA score, combination with venetoclax): 10 × 10 dataset, Cell Titre Glo at 48 hours, optimal of 4 dose combinations, negative = synergy; for Concentration of a compound of the disclosure, or gilteritinib, needed to decrease the 62.5 nM Ven response to <10% in MOLM14(D835Y) cells: combination with 62.5 nM Venetoclax, Cell Titer Glo, 48 hours, response <10%
Experimental: (§1) These assays were performed using the Cell Titre Glo assay, measured at 48 hours.
(§2) A smaller concentration indicates higher potency to synergize with Venetoclax.

IRAK1 = target: T2, IRAK1 (Homo sapiens, UniProt P51617); assay: RBC HotSpot Kinase Assay, IRAK1; format: biochemical; settings: isolated kinase enzyme, 33P-ATP, P81 filter-binding
T2 construct: purchased Reaction Biology (RBC HotSpot)
Summary of the method: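 Reactions ran in 20 mM Hepes (pH 7.5) containing 10 mM MgCl2, 1 mM EGTA, 0.1 mM Na3VO4, 2 mM DTT, 0.02 mg/ml BSA, 0.01% Brij35 and 1% DMSO, plus required cofactors. Functional activity readout on the expressible enzyme form, sometimes C-terminally truncated or lacking receptor regulatory regions.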

THP1 cells (FLT3 WT) = assay: Combination drug screening with venetoclax in THP1 cells (Cell Titre Glo, 10 × 10); format: cell-based; settings: for Excess HSA (sum excess HSA score, combination with venetoclax): 10 × 10 dataset, Cell Titre Glo at 48 hours, optimal of 4 dose combinations, negative = synergy; for Concentration needed to decrease the 312.5 nM Venetoclax response to <20%: Cell Titer Glo at 48 hours
Experimental: as §1, §2

T2 sequence (P51617 whole entry): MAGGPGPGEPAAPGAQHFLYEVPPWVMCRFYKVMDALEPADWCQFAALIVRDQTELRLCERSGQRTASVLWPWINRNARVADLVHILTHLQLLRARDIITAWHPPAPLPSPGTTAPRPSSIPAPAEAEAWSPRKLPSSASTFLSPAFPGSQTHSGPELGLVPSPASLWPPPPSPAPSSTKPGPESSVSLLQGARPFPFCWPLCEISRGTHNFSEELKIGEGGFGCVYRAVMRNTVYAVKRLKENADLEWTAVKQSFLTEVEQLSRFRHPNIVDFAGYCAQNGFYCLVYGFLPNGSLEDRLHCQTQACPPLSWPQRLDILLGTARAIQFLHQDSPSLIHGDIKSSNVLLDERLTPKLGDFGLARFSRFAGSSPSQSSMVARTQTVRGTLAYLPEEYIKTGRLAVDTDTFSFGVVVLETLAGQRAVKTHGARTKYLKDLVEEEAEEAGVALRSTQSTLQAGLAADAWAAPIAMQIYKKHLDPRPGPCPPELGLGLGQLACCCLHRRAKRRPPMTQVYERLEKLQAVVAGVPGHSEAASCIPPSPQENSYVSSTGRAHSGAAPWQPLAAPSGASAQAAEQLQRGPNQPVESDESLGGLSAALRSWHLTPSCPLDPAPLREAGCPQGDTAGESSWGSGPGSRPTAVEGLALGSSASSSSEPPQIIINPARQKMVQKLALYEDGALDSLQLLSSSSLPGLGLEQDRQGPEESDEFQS

| SMILES | IC50 (MOLM14 F691L cells) | IC50 (IRAK4) | Excess HSA (sum excess HSA score, combination with venetoclax) [1] | Concentration of a compound of the disclosure, or gilteritinib, needed to decrease the 62.5 nM Ven response to <10% in MOLM14(D835Y) cells [1] | IC50 (IRAK1) | Excess HSA (sum excess HSA score, combination with venetoclax) (THP1 cells (FLT3 WT)) | Concentration needed to decrease the 312.5 nM Venetoclax response to <20% (THP1 cells (FLT3 WT)) |
| --- | --- | --- | --- | --- | --- | --- | --- |
| COc1cc2ncc(-c3nc(N[C@H]4CNCC[C@@H]4F)ncc3F)n2nc1C1CC2(CCC2)C1 [Compound 60a, 5-fluoro-N-((3S,4S)-4-fluoropiperidin-3-yl)-4-(7-methoxy-6-(spiro[3.3]heptan-2-yl)imidazo[1,2-b]pyridazin-3-yl)pyrimidin-2-amine] | 90 nM | 8 nM | −1497.3117 | 25 nM | 4 nM | −1548 | 5 µM |
| COc1cc2ncc(-c3ccnc(N[C@H]4CNCC[C@@H]4F)n3)n2nc1C1CCC1 [Compound 79a, 4-(6-cyclobutyl-7-methoxyimidazo[1,2-b]pyridazin-3-yl)-N-((3S,4S)-4-fluoropiperidin-3-yl)pyrimidin-2-amine] | 101 nM | 2 nM | −1180 | 25 nM | 33 nM | −994.9 | 5 µM |
| COc1cc2ncc(-c3nc(N[C@H]4CNCC[C@@H]4F)ncc3F)n2nc1C1COC1 [Compound 92a, 5-fluoro-N-((3S,4S)-4-fluoropiperidin-3-yl)-4-(7-methoxy-6-(oxetan-3-yl)imidazo[1,2-b]pyridazin-3-yl)pyrimidin-2-amine] | 40 nM | < 0.5 nM |  | 12.5 nM | 4 nM | −529.2 | 5 µM |
| CC(C)(O)c1cn2c(-c3nc(N[C@H]4CNCC[C@@H]4F)ncc3F)cnc2cn1 [Compound 100a, 2-(3-(5-fluoro-2-(((3S,4S)-4-fluoropiperidin-3-yl)amino)pyrimidin-4-yl)imidazo[1,2-a]pyrazin-6-yl)propan-2-ol] | 603 nM | 2 nM | −1548 | 625 nM | 24 nM | −1080 | 10 µM |
